Experimental data taken from patent publication US20020004611A1 (Cargill, Incorporated, priority 1997, published 2002).

Assays:
Type in all cases: physicochemical
[1] = Chiral purity of lactic acid after heating during triethylamine evaporation (Example 5)
Description: The back extraction was scaled up to allow the distillation experiment. […] The triethylamine evaporated initially at 23° C. and 10 mm Hg. […] About 69% of the triethylamine evaporated out. […].
The remaining mixture was heated to 110° C. where it was held for 80 minutes. At this point, 96% of the triethylamine was evaporated.

[2] = Three successive contacts of fermentation broth with fresh extracting solvent (Example 21); settings: 89 wt % Alamine 336, 9 wt % dodecanol, 2 wt % IsoPar K; for Lactic Acid Aqueous Phase wt % / Lactic Acid Organic Phase wt %: aqueous to organic phase ratio 3.0
Source text: Fermentation broth with a final pH of 3.87 and a total lactate material concentration of 79 g/liter as determined by high performance liquid chromatography was obtained.

[3] = Back extraction of lactic acid from Alamine 336 into second polar liquid phase (Example 4)
Description: Two solutions of lactic acid and […] 336 were made by contacting the […] […] The samples were held at the specified temperature in an oil bath for about 45 to 60 minutes with regular mixing. […] A similar procedure was used for contacting […] […] Phases were allowed to settle at specified temperature and then quickly separated by piping out the bottom phase. […] 336 concentrations. In all cases, the […] 336 phase was the least dense phase or the top phase. […] 336 concentrations in the top and bottom phases. […] In some of the solvents, there was a significant amount of […] 336 co-extracted into the polar liquid phase. Dimethyl sulfoxide looks like a favorable solvent for this type of process because of the good selectivity for the lactic acid over the […] 336.

[4] = Single stage extraction of lactic acid from fermentation broth with different solvents (Example 20); settings: broth pH 3.87
Source text: Fermentation broth with a final pH value of 3.87 and a total lactate material concentration of 79 g/liter as determined by high performance liquid chromatography was obtained. A number of different solvents were contacted with the broth to determine the lactic acid recovery in a single stage. […] For the 100% Alamine 336 solvent, two organic phases were isolated and titrated and both values are reported. The partition coefficient is not reported for this system.

[5] = solvent 30 wt % TOPO, 70 wt % MIBK
[6] = solvent 82 wt % A336, 10 wt % OctOH, 8 wt % IPK
[7] = solvent 89 wt % A336, 9 wt % DodecOH, 2 wt % IPK

## CC(O)C(=O)O (stereo not drawn) [lactic acid, 2-hydroxypropionic acid]
[1]; 21.5 wt % lactic acid in triethylamine and N-methyl-2-pyrrolidinone, 55° C. 10 mm Hg two hours, then 110° C. 80 minutes
  chiral purity after heating: not significantly changed
[1]; 43 wt % lactic acid in triethylamine, 10 mm Hg, heated to 120° C., held 90 minutes
  chiral purity of the lactic acid after heating: not changed significantly
[2]; Stage 1
  Partition Coefficient: 2.5
  Lactic Acid Aqueous Phase wt %: 1.55 wt %
  Lactic Acid Organic Phase wt %: 3.9 wt %
[2]; Stage 2
  Partition Coefficient: 1.25
  Lactic Acid Aqueous Phase wt %: 1.09 wt %
  Lactic Acid Organic Phase wt %: 1.36 wt %
[2]; Stage 3
  Partition Coefficient: 0.84
  Lactic Acid Aqueous Phase wt %: 0.88 wt %
  Lactic Acid Organic Phase wt %: 0.74 wt %
[3]; solvent Lactide, 140 °C
  Partition Coefficient (lactic acid, Alamine 336 top phase / bottom polar liquid phase): 0.82
[3]; solvent Lactide, 140 °C, Bottom phase, calculated from overall mass balance
  Lactic acid Wt %: 2.98^2 Wt %
[3]; solvent Lactide, 140 °C, Top (Alamine 336) phase
  Lactic acid Wt %: 2.44 Wt %
[3]; solvent NMP, 90 °C
  Partition Coefficient (lactic acid, Alamine 336 top phase / bottom polar liquid phase): 0.29
[3]; solvent NMP, 90 °C, Bottom (polar liquid) phase
  Lactic acid Wt %: 1.13 Wt %
[3]; solvent NMP, 90 °C, Top (Alamine 336) phase
  Lactic acid Wt %: 0.33 Wt %
[3]; solvent NMP, 110 °C
  Partition Coefficient (lactic acid, Alamine 336 top phase / bottom polar liquid phase): 0.22
[3]; solvent NMP, 110 °C, Bottom (polar liquid) phase
  Lactic acid Wt %: 12.2 Wt %
[3]; solvent NMP, 110 °C, Top (Alamine 336) phase
  Lactic acid Wt %: 2.73 Wt %
[4]; [5]
  Lactic Acid Aqueous Phase wt %: 2.24 wt %
  Lactic Acid Organic Phase wt %: 2.36 wt %
  Partition Coefficient: 1.05
[4]; [6]
  Lactic Acid Aqueous Phase wt %: 1.52 wt %
  Lactic Acid Organic Phase wt %: 5.09 wt %
  Partition Coefficient: 3.35
[4]; [7]
  Lactic Acid Aqueous Phase wt %: 4.76 wt %
  Lactic Acid Organic Phase wt %: 1.84 wt %
  Partition Coefficient: 2.6
[4]; solvent 100% A336
  Lactic Acid Aqueous Phase wt %: 2.34 wt %
